Patent US20240424146A1, “DRUG SCREENING METHOD AND MODEL FOR MONITORING PLATINUM-RESISTANT OVARIAN CANCER TUMOR GROWTH AND METASTASES” (THE BOARD OF REGENTS OF THE UNIVERSITY OF OKLAHOMA, priority 2023, published 2024)

Test system: OVCAR-8 CPR Luc cells
Assay: cisplatin dose response, cell viability by MTS assay
Type: cell-based, human
Details: non-linear regression, FIG. 1
Experimental: Cells were treated with increasing doses of cisplatin and cell viability was measured using the MTS assay. IC50 values were calculated using non-linear regression analysis in GraphPad Prism software.
Next, we confirmed that these cells retained their inherent response to cisplatin. […] To determine if luciferase activity could be visualized in vitro we plated the OVCAR-8 CPR Luc cells in 2-dimensional (2D) adherent and suspended three-dimensional (3D) spheroid conditions.

N.N.[Cl][Pt][Cl] [cisplatin]
IC50 of OVCAR-8 CPR Luc cells to cisplatin relative to cisplatin-sensitive cells (OVCAR-8 Luc): twice
